# Active and inactive are the calls of the source.
# Assays:
# [1] = target: T1, Adenosylmethionine-8-amino-7-oxononanoate aminotransferase (Mycobacterium tuberculosis, UniProt P9WQ81); experiment: Mycobacterium tuberculosis BioA enzyme inhibitor Measured in Biochemical System Using Plate Reader - 2163-02_Inhibitor_Dose_CherryPick_Activity.; format: functional, Mycobacterium tuberculosis UT205
# T1 sequence (P9WQ81 whole entry): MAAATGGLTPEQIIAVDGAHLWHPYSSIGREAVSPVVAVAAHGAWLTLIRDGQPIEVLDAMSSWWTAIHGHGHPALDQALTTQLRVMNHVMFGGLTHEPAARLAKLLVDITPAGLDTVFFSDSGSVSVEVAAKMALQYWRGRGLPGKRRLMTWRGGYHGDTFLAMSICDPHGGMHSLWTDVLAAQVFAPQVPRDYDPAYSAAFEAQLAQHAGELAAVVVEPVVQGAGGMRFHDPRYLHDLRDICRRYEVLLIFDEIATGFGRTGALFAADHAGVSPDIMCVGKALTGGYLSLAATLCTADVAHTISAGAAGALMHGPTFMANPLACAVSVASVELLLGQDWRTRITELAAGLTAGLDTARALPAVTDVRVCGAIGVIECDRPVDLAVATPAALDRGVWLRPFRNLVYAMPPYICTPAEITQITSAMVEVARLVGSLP
# [2] = growth suppression of PTEN-null colon cells, dose response, cell-based, HCT116 PTEN knockout (AID 1047); format: functional;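 also: HCT116 colon tumor cells with PTEN knocked out; cells exposed to compound for 60 hours before readout; potency for loss of cell viability measured by luminescence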
# [3] = target: T2, Endoribonuclease toxin MazF (Escherichia coli K-12, UniProt P0AE70); experiment: MazF toxin RNase activators, dose response, biochemical, fluorescence, single-stranded RNA substrate, uHTS hits (AID 588481); format: functional
# T2 sequence (P0AE70 whole entry): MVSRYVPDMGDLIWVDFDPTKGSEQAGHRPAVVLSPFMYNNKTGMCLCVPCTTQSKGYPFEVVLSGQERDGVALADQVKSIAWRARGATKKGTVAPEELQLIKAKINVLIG
# [4] = target: T3, RNA-binding protein pos-1 (Caenorhabditis elegans, UniProt G5EF15); experiment: inhibitors of POS-1/mex-3 RNA binding, dose response, biochemical, fluorescence polarization (AID 1964);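 also: purified POS-1 fused to maltose binding protein made in E. coli; potency of compounds blocking POS-1 binding to fluorescent RNA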
# T3 sequence (G5EF15 whole entry): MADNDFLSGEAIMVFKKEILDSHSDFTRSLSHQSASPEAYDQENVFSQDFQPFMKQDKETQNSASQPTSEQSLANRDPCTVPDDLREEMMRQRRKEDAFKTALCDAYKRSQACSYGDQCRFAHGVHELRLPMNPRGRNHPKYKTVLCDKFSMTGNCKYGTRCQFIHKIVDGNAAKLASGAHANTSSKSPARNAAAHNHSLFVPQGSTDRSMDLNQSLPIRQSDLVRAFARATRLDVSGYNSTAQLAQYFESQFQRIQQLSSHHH
# [5] = target: T4, Zinc finger protein mex-5 (Caenorhabditis elegans, UniProt Q9XUB2); experiment: MEX-5/TCR-2 RNA interaction inhibitors, dose response, biochemical, C. elegans, fluorescence polarization (AID 1960)
# T4 sequence (Q9XUB2 whole entry): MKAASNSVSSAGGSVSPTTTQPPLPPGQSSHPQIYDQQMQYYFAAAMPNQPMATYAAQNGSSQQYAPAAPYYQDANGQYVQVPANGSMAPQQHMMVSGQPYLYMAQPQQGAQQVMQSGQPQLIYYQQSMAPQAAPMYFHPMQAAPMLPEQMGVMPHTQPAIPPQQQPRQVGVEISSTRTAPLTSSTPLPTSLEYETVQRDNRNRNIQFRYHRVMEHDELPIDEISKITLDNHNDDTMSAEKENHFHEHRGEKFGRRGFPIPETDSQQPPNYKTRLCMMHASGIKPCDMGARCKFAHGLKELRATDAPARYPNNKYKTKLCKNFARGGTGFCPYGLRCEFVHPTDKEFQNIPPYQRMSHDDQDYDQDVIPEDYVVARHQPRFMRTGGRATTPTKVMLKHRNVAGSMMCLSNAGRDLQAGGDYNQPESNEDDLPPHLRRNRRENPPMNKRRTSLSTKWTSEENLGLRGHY
# [6] = growth suppression of beta-catenin-knockout colon cells, dose response, cell-based, HCT116, human colon tumor (AID 1045); format: functional;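 also: HCT116 colon tumor cells with beta catenin knocked out; cells exposed to compound for 60 hours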
# [7] = target: T2, Endoribonuclease toxin MazF; experiment: fluorescent RNA oligo signal without MazF, dose response, counter-screen for MazEF activator project, biochemical, fluorescence, single-stranded RNase substrate (AID 588502); format: functional
# [8] = C. albicans growth with fluconazole, confirmation, fluorescence, retest (AID 2467); format: functional, cell-based
# [9] = tested on: Streptococcus sp. 'group A'; experiment: growth inhibition of control SK(-) GAS strain, dose response, counter-screen for streptokinase expression inhibitor project, luminescence, kanamycin, BacTiterGlo, confirmation (AID 1900); format: functional, organism-based
# [10] = target: T5, Streptokinase A (Streptococcus pyogenes serotype M1, UniProt P10520); experiment: S. pyogenes streptokinase expression inhibitors, potency, dose response, plasminogen activation absorbance, OD405 (AID 1914); format: functional, Streptococcus pyogenes M1 GAS;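 also: secreted streptokinase activity via plasminogen activation per viability signal from cell pellet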
# T5 sequence (P10520 whole entry): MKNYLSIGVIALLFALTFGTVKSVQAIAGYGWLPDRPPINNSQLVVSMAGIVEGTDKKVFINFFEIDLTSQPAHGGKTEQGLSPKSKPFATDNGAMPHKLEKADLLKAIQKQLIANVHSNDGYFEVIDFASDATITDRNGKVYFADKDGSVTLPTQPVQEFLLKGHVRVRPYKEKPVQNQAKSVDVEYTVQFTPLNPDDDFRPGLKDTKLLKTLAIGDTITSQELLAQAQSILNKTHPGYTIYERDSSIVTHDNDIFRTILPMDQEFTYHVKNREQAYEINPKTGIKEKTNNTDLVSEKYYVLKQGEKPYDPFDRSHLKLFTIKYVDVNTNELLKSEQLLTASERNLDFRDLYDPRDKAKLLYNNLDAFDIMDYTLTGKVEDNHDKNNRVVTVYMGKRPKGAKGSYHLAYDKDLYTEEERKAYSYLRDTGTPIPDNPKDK
# [11] = tested on: Vero; experiment: Vero cell cytotoxicity, cytotoxicity control for flavivirus capping enzyme inhibitors (AID 588742); format: functional; conditions: Chlorocebus sabaeus
# [12] = target: Genome polyprotein (dengue virus type 2, UniProt P29990); experiment: Dengue-2 NS5 methyltransferase inhibitors, primary screen, biochemical, confirmation dose response (AID 588689); format: functional
# Sequence of Genome polyprotein (P29990 2492-3391 limits assumed): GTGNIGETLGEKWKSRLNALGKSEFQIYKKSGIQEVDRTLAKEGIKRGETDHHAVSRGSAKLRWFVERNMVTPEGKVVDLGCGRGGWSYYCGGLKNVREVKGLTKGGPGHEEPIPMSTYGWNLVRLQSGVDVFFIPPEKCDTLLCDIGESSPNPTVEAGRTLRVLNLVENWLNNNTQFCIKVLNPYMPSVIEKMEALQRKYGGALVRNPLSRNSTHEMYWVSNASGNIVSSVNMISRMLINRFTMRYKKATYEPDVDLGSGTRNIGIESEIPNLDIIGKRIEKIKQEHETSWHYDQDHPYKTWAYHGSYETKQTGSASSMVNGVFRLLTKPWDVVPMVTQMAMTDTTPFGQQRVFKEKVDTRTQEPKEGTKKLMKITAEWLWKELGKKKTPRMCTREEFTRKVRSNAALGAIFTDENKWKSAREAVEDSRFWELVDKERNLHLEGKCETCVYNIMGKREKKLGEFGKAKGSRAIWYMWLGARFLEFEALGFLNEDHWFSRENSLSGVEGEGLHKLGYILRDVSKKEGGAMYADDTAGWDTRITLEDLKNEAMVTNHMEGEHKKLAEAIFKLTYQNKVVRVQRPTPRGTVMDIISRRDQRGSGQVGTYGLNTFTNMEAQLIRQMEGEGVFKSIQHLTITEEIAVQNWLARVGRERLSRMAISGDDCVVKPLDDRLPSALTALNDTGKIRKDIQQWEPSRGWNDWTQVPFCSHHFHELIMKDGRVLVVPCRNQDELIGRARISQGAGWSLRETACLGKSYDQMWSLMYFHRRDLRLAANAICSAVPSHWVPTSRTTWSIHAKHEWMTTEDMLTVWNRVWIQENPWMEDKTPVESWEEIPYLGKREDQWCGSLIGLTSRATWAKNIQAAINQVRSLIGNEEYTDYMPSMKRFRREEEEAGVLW
# [13] = NIH-3T3 fibroblast cytotoxicity, dose response, cytotoxicity control, cell-based, fluorescence, Alamar Blue, secondary assay (AID 2327); format: functional;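 also: NIH-3T3 mouse fibroblasts cultured with fluconazole at 8 µg/mL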
# [14] = tested on: Streptococcus; experiment: Group A Streptococcus viability loss, dose response, counter-screen for streptokinase expression inhibitor project, luminescence, BacTiterGlo (AID 1915); format: functional, organism-based;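 also: potency for reduction of bacterial viability or growth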
# [15] = target: T6, Fatty acid synthase (Homo sapiens, UniProt P49327); experiment: FAS thioesterase domain inhibitors, dose response, biochemical, kinetic fluorescence intensity (AID 624326); format: functional;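 also: rate of fluorescence rise from hydrolysis of a fluorogenic O-methyl fluorescein ester substrate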
# T6 sequence (P49327 whole entry, the tested form may be a part): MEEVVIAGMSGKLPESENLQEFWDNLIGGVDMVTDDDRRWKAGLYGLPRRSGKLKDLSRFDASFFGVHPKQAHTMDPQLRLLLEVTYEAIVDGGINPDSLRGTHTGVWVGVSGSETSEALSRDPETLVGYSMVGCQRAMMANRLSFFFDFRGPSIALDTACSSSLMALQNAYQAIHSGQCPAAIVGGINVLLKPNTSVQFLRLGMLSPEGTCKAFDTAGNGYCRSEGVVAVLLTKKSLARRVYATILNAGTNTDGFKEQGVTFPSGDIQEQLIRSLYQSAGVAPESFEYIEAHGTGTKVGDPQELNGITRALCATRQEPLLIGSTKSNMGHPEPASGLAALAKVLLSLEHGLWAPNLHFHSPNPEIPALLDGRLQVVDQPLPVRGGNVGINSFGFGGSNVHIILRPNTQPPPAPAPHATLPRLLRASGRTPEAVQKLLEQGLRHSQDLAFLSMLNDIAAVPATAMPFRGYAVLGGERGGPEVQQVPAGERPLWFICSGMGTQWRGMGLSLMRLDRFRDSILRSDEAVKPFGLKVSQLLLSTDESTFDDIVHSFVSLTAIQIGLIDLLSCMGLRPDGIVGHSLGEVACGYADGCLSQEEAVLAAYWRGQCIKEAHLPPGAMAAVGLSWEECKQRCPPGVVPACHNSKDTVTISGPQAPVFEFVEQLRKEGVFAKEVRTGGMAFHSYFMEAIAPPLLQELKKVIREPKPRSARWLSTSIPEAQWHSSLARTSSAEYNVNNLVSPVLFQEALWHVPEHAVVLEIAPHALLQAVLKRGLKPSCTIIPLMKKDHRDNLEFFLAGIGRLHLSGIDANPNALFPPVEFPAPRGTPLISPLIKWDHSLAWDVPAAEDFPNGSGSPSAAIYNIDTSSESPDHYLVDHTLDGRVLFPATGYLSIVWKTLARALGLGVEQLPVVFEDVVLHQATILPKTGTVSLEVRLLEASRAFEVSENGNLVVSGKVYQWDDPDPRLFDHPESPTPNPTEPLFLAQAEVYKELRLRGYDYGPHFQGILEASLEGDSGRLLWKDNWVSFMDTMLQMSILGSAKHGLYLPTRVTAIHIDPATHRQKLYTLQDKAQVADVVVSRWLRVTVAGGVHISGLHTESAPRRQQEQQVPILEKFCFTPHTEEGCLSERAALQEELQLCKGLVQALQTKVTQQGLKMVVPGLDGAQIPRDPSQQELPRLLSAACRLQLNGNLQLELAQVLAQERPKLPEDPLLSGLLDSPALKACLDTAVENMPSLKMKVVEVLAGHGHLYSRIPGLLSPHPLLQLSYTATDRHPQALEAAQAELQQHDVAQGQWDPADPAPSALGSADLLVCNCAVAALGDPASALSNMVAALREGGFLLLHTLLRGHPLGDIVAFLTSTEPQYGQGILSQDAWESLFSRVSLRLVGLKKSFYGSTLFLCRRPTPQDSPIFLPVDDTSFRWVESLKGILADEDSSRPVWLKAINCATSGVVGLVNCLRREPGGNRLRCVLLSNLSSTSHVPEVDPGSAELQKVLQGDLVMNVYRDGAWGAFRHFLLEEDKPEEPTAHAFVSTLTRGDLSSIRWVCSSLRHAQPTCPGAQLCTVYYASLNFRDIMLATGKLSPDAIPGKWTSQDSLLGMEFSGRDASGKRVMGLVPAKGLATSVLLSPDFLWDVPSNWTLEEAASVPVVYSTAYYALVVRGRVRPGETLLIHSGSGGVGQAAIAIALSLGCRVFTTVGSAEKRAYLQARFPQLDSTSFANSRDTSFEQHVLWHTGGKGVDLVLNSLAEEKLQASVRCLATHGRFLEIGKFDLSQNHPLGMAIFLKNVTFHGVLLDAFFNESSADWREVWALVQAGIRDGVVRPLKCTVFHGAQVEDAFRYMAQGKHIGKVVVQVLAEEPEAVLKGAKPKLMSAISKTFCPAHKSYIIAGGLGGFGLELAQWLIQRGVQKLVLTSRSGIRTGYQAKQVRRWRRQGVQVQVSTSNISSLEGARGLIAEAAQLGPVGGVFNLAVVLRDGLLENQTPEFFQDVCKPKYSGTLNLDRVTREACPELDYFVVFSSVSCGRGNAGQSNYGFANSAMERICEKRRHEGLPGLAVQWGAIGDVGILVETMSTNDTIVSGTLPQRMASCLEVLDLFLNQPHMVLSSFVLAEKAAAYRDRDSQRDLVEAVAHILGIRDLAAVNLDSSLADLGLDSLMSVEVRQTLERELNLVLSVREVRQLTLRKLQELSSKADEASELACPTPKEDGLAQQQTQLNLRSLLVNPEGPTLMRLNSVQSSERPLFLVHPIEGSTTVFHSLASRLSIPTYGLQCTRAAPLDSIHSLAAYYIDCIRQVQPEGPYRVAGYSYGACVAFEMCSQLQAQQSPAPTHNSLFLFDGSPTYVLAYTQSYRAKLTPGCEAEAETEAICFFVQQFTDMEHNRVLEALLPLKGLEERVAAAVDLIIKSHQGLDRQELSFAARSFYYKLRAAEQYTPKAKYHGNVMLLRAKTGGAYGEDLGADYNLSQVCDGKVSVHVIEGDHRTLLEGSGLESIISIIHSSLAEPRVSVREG
# [16] = target: T6, Fatty acid synthase; experiment: FAS thioesterase domain inhibitors, dose response, biochemical, endpoint fluorescence intensity, uHTS hits (AID 624327); format: functional;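 also: fluorescence from hydrolysis of an O-methyl fluorescein acyl ester substrate by the enzyme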
smiles,measurement,setting,value
Cc1cc(NC(=O)CN(C)S(=O)(=O)c2c[nH]cn2)ccc1Br,AC50,[1],19 µM (active)
Nn1c(SCCOc2ccccc2)nnc1-c1cccnc1,AC50,[1],1.33 µM (active)
CCn1c(/C=C/c2c(C)[nH]c3ccccc23)nc2ccccc2c1=O,EC50,[2],7.1 µM (active)
same,EC50,[3],> 99 µM (inactive)
same,EC50,[4],> 300 µM (not active)
same,EC50,[5],> 300 µM (inconclusive)
same,EC50,[6],5.59 µM (active)
same,EC50,[7],> 99 µM (inactive)
CCc1ccc(/C=C2\SC(=S)N(CCCC(=O)Nc3ccccc3C(=O)O)C2=O)cc1,EC50,[8],2.37 µM (active)
same,EC50,[9],1.9 µM (active)
same,EC50,[10],> 50 µM (not active)
same,CC50,[11],> 40 µM (active)
same,IC50,[12],30.8 µM (active)
same,EC50,[13],6.89 µM (inconclusive)
same,EC50,[14],133 µM (active)
O=C(O)CCS(=O)(=O)c1nc(-c2cccs2)cc(C(F)(F)F)n1,AC50,[1],15.6 µM (active)
O=C(CC(C(=O)O)c1ccc(Cl)cc1)c1ccc(Cl)c(Cl)c1 (stereo not given),IC50,[15],4.21 µM (active)
same,IC50,[16],2.11 µM (active)
C=CCNC(=O)/C(=C\c1ccc(OC)cc1)NC(=O)c1ccc([N+](=O)[O-])cc1,IC50,[15],2.21 µM (active)
same,IC50,[16],2.93 µM (active)

# From ChEMBL document CHEMBL1201862, “PubChem BioAssay data set” (2004)
